In patent US9560876B2, “Acylamino acid compounds and food preparations containing same” (Nestec S.A., priority 2008, dated 2017):

Biological target: human TRPA1 (Homo sapiens, UniProt O75762)
Assay: Intracellular calcium [Ca2+]i flux in HEK 293 cells stably expressing TRPA1 (FLEXstation, Fura-2/AM)
Assay type: cell-based
Conditions: saturating concentration
Procedure: Cloning and Expression of Human TRPV1 and TRPA1 Receptors in HEK 293 Cells: Cloning and expression of these receptors was performed following previously published protocols. Briefly, cloned human TRPV1 cDNA was obtained from RZPD (Germany) and hTRPA1 cDNA from OriGene (Rockville, Md.). Genes were subcloned into pcDNA5/FRT (Invitrogen, Carlsbad, Calif.) to generate stable cell lines using the Flp-In system (Invitrogen) after sequencing verification.
Measurement of Intracellular Calcium Levels [Ca2+]i and Membrane Potential Variation in HEK 293 Cells Using a Fluorescent Plate Reader: Cell lines stably expressing TRP channels were seeded into 96-well plates previously coated with poly-D-lysine. […] [Ca2+]i fluxes from a homogeneous cell population (approximately 100000 cells) were measured as changes in fluorescence intensity when stimulated with agonists using a FLEXstation (Molecular Devices). […]
Data Analysis: Responses of molecules in HEK 293 cells were expressed as a percentage of maximum responses evoked by 150 μM cinnamaldehyde for TRPA1 and 1 μM capsaicin for TRPV1 (these concentrations were assessed independently to be saturating under these conditions). For all experiments, calcium fluxes were measured as changes in fluorescence intensity, before and after the addition of agonists. […] Data obtained from this study were expressed as mean SEM. […]

Sequence of human TRPA1 (O75762 whole entry): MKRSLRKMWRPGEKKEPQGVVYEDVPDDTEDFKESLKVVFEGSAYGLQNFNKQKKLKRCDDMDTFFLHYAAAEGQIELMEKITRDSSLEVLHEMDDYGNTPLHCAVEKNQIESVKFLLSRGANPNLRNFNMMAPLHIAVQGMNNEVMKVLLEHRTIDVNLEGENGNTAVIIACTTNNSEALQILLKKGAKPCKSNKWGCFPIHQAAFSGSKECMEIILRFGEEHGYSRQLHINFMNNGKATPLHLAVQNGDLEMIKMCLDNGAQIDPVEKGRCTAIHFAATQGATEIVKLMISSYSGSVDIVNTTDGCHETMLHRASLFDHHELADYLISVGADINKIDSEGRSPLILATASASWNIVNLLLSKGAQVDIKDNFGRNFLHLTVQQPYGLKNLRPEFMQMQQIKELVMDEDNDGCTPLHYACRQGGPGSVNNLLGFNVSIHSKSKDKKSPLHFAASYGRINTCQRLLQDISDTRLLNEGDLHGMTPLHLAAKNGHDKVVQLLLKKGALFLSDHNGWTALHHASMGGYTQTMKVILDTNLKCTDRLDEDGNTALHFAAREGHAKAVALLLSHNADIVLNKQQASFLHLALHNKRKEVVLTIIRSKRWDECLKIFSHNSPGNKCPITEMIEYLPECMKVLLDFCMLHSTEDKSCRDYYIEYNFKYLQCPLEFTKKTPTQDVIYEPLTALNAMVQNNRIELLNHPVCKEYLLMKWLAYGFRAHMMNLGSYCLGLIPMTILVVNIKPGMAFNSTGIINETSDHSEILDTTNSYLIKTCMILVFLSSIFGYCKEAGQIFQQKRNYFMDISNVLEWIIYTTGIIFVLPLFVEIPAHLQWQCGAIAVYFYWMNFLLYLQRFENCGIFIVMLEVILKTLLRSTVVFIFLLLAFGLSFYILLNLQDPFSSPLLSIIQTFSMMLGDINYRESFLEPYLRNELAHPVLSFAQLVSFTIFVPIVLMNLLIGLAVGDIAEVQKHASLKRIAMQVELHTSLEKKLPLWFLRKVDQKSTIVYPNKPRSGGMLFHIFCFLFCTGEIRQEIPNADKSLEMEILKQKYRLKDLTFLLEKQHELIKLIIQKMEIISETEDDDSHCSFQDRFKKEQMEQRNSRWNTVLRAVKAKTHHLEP

Compound: CCC=CCC=CCC=CCCCCCCCC(=O)NC(C)C(=O)O (centres unmarked) [K]
- selectivity of activation, TRPA1 versus TRPV1 (comparison of TRPA1 and TRPV1 activation in HEK 293 cells): purely activating TRPA1
- maximum activation on TRPA1 (responses expressed as percentage of maximum response evoked by 150 μM cinnamaldehyde, FIG. 1): strong stimulating effect
